According to patent US9738676B2, “Selected macrolides with PDE4-inhibiting activity” (Basilea Pharmaceutica AG, priority 2012, dated 2017):
≈ marks a conversion by molar mass, not a printed value.

Tests used:
PDE4 (U937) = test: PDE4 enzyme inhibition, IMAP fluorescence polarization assay; format: biochemical, human; settings: for IC50: PDE4 partially purified from U937 cells
Protocol: PDE4 is partially purified from undifferentiated human monocytic cells (U937) according to Thorpy et al. 1992 (J. Pharmacol. Exp. Ther. 263: 1195). Cells are grown in Iscove's modified Dulbecco's medium (GIBCO) with 5% foetal bovine serum (GIBCO) and 100 μg/mL penicillin-streptomycin (GIBCO). Cells are broken by sonication and PDE4 is purified by anion-exchange chromatography on DEAE-Sepharose CL-6B (GE Healthcare). […] In addition, PDE4 preparations are validated by inhibition studies with PDE4-specific and unspecific PDE inhibitors.
PDEs specifically hydrolyze cAMP and/or cGMP and release the product AMP and/or GMP. The potency of PDE inhibition by test compounds is determined with a commercially available in vitro enzymatic assay (IMAP® Fluorescence Polarization assay, Molecular Devices Corp.). Fluorescently labeled cAMP or cGMP is hydrolyzed by PDE preparations and in a second step, binding of labeled product to a large binding partner allows product detection by fluorescence polarization (FP) measurements.
Stock solutions of the test compounds are made in DMSO and diluted in assay buffer (10 mM Tris-HCl, 10 mM MgCl2, 0.1% BSA 0.05% NaN3, pH 7.2) to the desired concentrations. The solutions used in the assay contain the test compound in assay buffer with 2% DMSO. 5 μl of this pre-diluted test compound solution are mixed with 10 μl of substrate (FL-cAMP or FL-cGMP) at concentrations recommended by the manufacturer and with 5 μl of appropriately diluted PDE. 5 μl of reaction buffer with 2% DMSO are used for control reactions. […] After incubation for 90 minutes at room temperature, 60 μl of binding reagent are added as specified by the manufacturer. Binding is allowed to proceed for 30 minutes and fluorescence polarization is measured. Dose dependence of PDE inhibition is measured by assaying dilution series of test compounds. IC50 values are determined from the measured activities by curve fitting.

H. influenzae 3168 = test: MIC determination by broth microdilution; format: cell-based; settings: Haemophilus influenzae, read-out: MIC (μg/ml) H. influenzae 3168
Protocol: (§1) All MIC values are determined by broth microdilution according to the guidelines by the Clinical and Laboratory Standards Institute (CLSI, Wayne Pa., USA). Staphylococcus aureus ATCC29213 is grown on Müller-Hinton agar (MHA) (Becton Dickinson) and then in cation-adjusted Müller Hinton broth (CaMHB) (Becton Dickinson) for 24 h at 37° C. Streptococcus pyogenes ATCC19615 and Moraxella catharrhalis QK34 are grown on MHA with 2.5% Laked Horse Blood (Oxoid). Liquid cultures in CaMHB+5% horse serum (Sigma) are incubated for 24 h at 35° C. in a 5% CO2 atmosphere. Haemophilus. influenzae 3168 is grown on MHA+2.5% Fildes extract (Oxoid). Liquid cultures are grown in CaMHB+5% Fildes extract at 35° C. in a 5% CO2 atmosphere. Propionibacteria are grown on Wilkins-Chalgren agar (WCA) (Oxoid) for 72 h under anaerobic conditions. Liquid cultures are grown anaerobically in Wilkins-Chalgren broth (WCB) (Oxoid) for 48 h at 35° C. MIC values are obtained by broth microdilution using WCB (Anaerobe Broth MIC, Difco). Microtitre plates are loaded into 7-L GENbox anaerobic incubation jars (BioMerieux) fitted with anaerobic atmosphere generators (BioMerieux) and a Dry Anaerobic Indicator Strip (BBL). Under these conditions, an O2 concentration <0.1% is achieved by 2.5 h, and a CO2 concentration >15% by 24 h.

S. aureus ATCC29213 = test: MIC determination by broth microdilution; format: cell-based; settings: Staphylococcus aureus, read-out: MIC (μg/ml) S. aureus ATCC29213
Protocol: as §1

S. pyogenes ATCC19615 = test: MIC determination by broth microdilution; format: cell-based; settings: Streptococcus pyogenes, read-out: MIC (μg/ml) S. pyogenes ATCC19615
Protocol: as §1

M. catarrhalis QK34 = test: MIC determination by broth microdilution; format: cell-based, Moraxella catharrhalis; settings: Moraxella catarrhalis, read-out: MIC (μg/ml) M. catarrhalis QK34
Protocol: as §1

P. acnes EG7NS = test: MIC determination by broth microdilution (anaerobic); format: cell-based, Propionibacterium acnes; settings: for MIC: Cutibacterium acnes, EG7NS, read-out: MIC (μg/ml) P. acnes EG7NS
Protocol: as §1

P. granulosum EG13NS = test: as above; format: cell-based; settings: read-out: MIC (μg/ml) P. granulosum EG13NS
Protocol: as §1

[1] = Oral bioavailability, pharmacokinetic study in mice; format: in vivo, mouse; settings: for bioavailability: in vivo, mouse, 10 mg/kg oral, 1 mg/kg intravenous, dose-normalized AUC, read-out: Oral bioavail. (mouse F %)
Protocol: Drug concentrations in blood or plasma are determined as a function of time in pharmacokinetic studies. Mice were treated with the test compound at defined doses. 10 mg/kg is used for oral administration and 1 mg/kg is taken for intravenous administration. Blood or plasma samples are collected at defined time-points and the drug content is determined by LC-MS/MS. The drug concentration is plotted as a function of time and the non-intravenous (oral) and the intravenous area under the curve (AUC) is calculated using the linear trapezoidal rule. The oral bioavailability is then calculated using dose-normalized AUC with the following formula: F[%]=AUCoral/AUCintravenous*100 Blocking of hERG Channel

hERG channel = hERG channel (Homo sapiens (Human), UniProt Q12809); test: Blocking of hERG channel, whole-cell patch clamp in stably transfected HEK 293 cells; format: cell-based; settings: for Blocking of hERG @ 1 μM (% remaining tail current) / Blocking of hERG @ 10 μM (% remaining tail current): HEK 293 cells
bacteria = test: Antibacterial activity; format: cell-based
Protocol: as §1

hERG channel, sequence (Q12809 whole entry): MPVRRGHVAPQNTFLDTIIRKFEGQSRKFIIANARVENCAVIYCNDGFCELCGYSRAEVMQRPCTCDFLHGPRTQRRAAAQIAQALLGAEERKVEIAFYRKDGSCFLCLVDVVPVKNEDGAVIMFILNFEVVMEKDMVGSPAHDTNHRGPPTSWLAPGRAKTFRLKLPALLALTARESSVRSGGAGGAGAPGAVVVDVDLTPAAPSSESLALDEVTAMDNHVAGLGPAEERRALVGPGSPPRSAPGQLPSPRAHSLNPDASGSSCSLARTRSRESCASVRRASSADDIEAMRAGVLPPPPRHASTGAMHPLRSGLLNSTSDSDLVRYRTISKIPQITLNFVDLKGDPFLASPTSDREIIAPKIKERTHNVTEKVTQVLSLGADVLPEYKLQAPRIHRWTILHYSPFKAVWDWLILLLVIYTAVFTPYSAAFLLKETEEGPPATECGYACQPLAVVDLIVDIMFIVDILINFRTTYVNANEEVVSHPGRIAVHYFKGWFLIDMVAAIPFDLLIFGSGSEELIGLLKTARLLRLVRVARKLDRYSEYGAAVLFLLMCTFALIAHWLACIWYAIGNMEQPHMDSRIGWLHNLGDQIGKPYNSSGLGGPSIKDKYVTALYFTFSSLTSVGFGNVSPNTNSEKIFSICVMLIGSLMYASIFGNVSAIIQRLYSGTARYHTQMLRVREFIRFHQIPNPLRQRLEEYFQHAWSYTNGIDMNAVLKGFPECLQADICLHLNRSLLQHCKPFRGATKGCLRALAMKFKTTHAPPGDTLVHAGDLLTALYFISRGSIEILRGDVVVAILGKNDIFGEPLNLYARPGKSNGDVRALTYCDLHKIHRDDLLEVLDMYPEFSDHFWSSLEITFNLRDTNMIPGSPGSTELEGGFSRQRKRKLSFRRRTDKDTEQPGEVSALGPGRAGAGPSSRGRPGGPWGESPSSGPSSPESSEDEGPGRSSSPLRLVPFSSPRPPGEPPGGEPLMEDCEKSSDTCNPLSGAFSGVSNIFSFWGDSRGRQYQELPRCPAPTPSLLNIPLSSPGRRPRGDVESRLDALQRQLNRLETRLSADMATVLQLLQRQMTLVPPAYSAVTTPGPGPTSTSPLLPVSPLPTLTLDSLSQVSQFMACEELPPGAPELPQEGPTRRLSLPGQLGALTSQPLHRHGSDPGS

Structure (SMILES) | IC50 (PDE4 (U937)) [µM] | MIC (H. influenzae 3168) [µg/mL] | MIC (S. aureus ATCC29213) [µg/mL] | MIC (S. pyogenes ATCC19615) [µg/mL] | MIC (M. catarrhalis QK34) [µg/mL] | MIC (P. acnes EG7NS) [µg/mL] | MIC (P. granulosum EG13NS) [µg/mL] | bioavailability [1] [%] | Blocking of hERG @ 1 μM (% remaining tail current) (hERG channel) [%] | Blocking of hERG @ 10 μM (% remaining tail current) (hERG channel) [%] | PDE4-inhibiting activity (in words) (PDE4 (U937)) | oral bioavailability (in words) [1] | hERG channel inhibiting activity (in words) (hERG channel) | antibacterial activity (in words) (bacteria) | activity against certain strains of Propionibacterium acnes (in words) (P. acnes EG7NS)
CC[C@H]1OC(=O)[C@H](C)[C@@H](O)[C@H](C)[C@@H](O[C@@H]2O[C@H](C)C[C@H](N(C)C(=O)N3CCOCC3)[C@H]2O)[C@](C)(OC)C[C@@H](C)C(=O)[C@H](C)[C@H]2[C@H](SCCOc3cc(C(=O)Nc4c(Cl)cncc4Cl)ccc3OC)C(=O)O[C@@]21C | 0.0001 | > 32 | > 32 | > 32 | > 32 | > 32 | > 32 | 11.5 | 99.9 | 100 | – | – | – | – | –
CC[C@H]1OC(=O)[C@H](C)[C@@H](O[C@H]2C[C@@](C)(OC)[C@@H](O)[C@H](C)O2)[C@H](C)[C@@H](O[C@@H]2O[C@H](C)C[C@H](N(C)C(=O)N3CCOCC3)[C@H]2O)[C@](C)(OC)C[C@@H](C)C(=O)[C@H](C)[C@H]2[C@H](SCCN(Cc3c(Cl)cncc3Cl)c3ccc(OC)c(OC4CCCC4)c3)C(=O)O[C@@]21C | 0.043 | > 32 | > 32 | > 32 | > 32 | > 32 | > 32 | 1.5 | 99.2 | 82.9 | – | – | – | – | –
CC[C@H]1OC(=O)[C@H](C)[C@@H](O)[C@H](C)[C@@H](O[C@@H]2O[C@H](C)C[C@H](N(C)C(=O)N3CCOCC3)[C@H]2O)[C@](C)(OC)C[C@@H](C)C(=O)[C@H](C)[C@H]2C(SCCN(Cc3c(Cl)cncc3Cl)c3ccc(OC)c(OC4CCCC4)c3)C(=O)O[C@@]21C (stereo in doubt) [compound of formula (I)] | 0.035 | > 32 | > 32 | > 32 | > 32 | > 32 | > 32 | 22.8 | 99.9 | 98 | excellent | particularly good | does not inhibit | strongly reduced | –
CC[C@H]1OC(=O)[C@H](C)[C@@H](O[C@H]2C[C@@](C)(OC)[C@@H](O)[C@H](C)O2)[C@H](C)[C@@H](O[C@@H]2O[C@H](C)C[C@H](N(C)C(=O)N3CCOCC3)[C@H]2O)[C@](C)(OC)C[C@@H](C)C(=O)[C@H](C)[C@H]2N(CCCOc3cc(C(=O)Nc4c(Cl)cncc4Cl)ccc3OC)C(=O)O[C@]12C [Example 2 of WO2001/018510] | 0.876 | > 32 | > 32 | > 32 | > 32 | 2 (≈ 1.63 µM) | > 32 | 16.2 | 99 | 84 | – | moderate to good | acceptable | low against many bacterial strains | still very active
CC[C@H]1OC(=O)[C@H](C)[C@@H](O)[C@H](C)[C@@H](O[C@@H]2O[C@H](C)C[C@H](N(C)C)[C@H]2OC)[C@](C)(OC)C[C@@H](C)C(=O)[C@H](C)[C@H]2[C@H](SCCN(Cc3c(Cl)cncc3Cl)c3ccc(OC)c(OC4CCCC4)c3)C(=O)O[C@@]21C [Example 9 of WO2009/106419] | 0.3 | > 32 | 8 (≈ 7.6 µM) | 32 (≈ 30.4 µM) | > 32 | 4 (≈ 3.8 µM) | 4 (≈ 3.8 µM) | 9 | 23.7 | 3.7 | good to moderate | moderate | rather strong | antibacterially inactive against many pathogenic types of bacteria | –
CC[C@H]1OC(=O)[C@H](C)[C@@H](O[C@H]2C[C@@](C)(OC)[C@@H](O)[C@H](C)O2)[C@H](C)[C@@H](O[C@@H]2O[C@H](C)C[C@H](N(C)C(C)=O)[C@H]2O)[C@](C)(OC)C[C@@H](C)C(=O)[C@H](C)[C@H]2[C@H](SCCN(Cc3c(Cl)cncc3Cl)c3ccc(OC)c(OC4CCCC4)c3)C(=O)O[C@@]21C [Example 10 of WO2009/106419] | 0.031 | 32 (≈ 26.1 µM) | > 32 | 8 (≈ 6.53 µM) | 8 (≈ 6.53 µM) | 4 (≈ 3.26 µM) | 2 (≈ 1.63 µM) | 25.5 | 95.9 | 85.5 | excellent | particularly good | – | strong remaining antibacterial activity against certain types of bacteria | –
CC[C@H]1OC(=O)[C@H](C)[C@@H](O[C@H]2C[C@@](C)(OC)[C@@H](O)[C@H](C)O2)[C@H](C)[C@@H](O[C@@H]2O[C@H](C)C[C@H](N(C)C(=O)N3CCOCC3)[C@H]2O)[C@](C)(OC)C[C@@H](C)C(=O)[C@H](C)[C@H]2[C@H](SCCOc3cc(C(=O)Nc4c(Cl)cncc4Cl)ccc3OC)C(=O)O[C@@]21C [Example 15 WO2009/106419] | 0.071 | > 32 | > 32 | > 32 | > 32 | > 32 | > 32 | 4.6 | 100 | 98.6 | excellent | rather low | – | strongly reduced | –
